This passage reports IC50 results from patent US8871753B2, “Macrocyclic compounds and their use as kinase inhibitors” (Incyte Corporation, priority 2008, dated 2014).

Holding throughout (assay type): biochemical
Experiment [1] has as its target T1, human JAK2 (a.a. 828-1132) (Homo sapiens, UniProt O60674).
T1 construct: JAK2 (a.a. 828-1132); His tag (N); made in house; host or cells: insect cells (baculovirus)
As to the kind of experiment: In vitro JAK kinase assay (HTRF, phosphorylation of a biotinylated peptide), JAK2. Put shortly: (§1)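 Kinase reactions ran at room temperature for 1 h with ATP matched per isoform (JAK1 90 μM, JAK2 30 μM, JAK3 3 μM). After an EDTA stop, the phosphorylated biotin-peptide was read by HTRF using Eu-Py20 and SA-APC after 40 min binding.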

For experiment [2], the target named is T2, human JAK3 (a.a. 781-1124) (Homo sapiens, UniProt P52333).
T2 construct: JAK3 (a.a. 781-1124); His tag (N); made in house; host or cells: insect cells (baculovirus)
As to the kind of experiment: In vitro JAK kinase assay (HTRF, phosphorylation of a biotinylated peptide), JAK3. Put shortly: as §1

Experiment [3] has as its target T3, human JAK1 (a.a. 837-1142) (Homo sapiens, UniProt P23458).
T3 construct: human JAK1 (a.a. 837-1142); His tag (N); made in house; host or cells: insect cells (baculovirus)
As to the kind of experiment: In vitro JAK kinase assay (HTRF, phosphorylation of a biotinylated peptide), JAK1. Particulars: read-out: JAK1 IC50. A digest of the protocol:
as §1

A further experiment has as its target TYK2 (Homo sapiens, UniProt P29597). As to the kind of experiment: TYK2 kinase inhibition (Table A1).

SMILES strings stand for the structures. pIC50: −log10 of the molar value. Counter-ions that a name gives are not always drawn. Like-named read-outs stand apart in the source and are kept apart here.

T3 sequence (P23458 849-1154): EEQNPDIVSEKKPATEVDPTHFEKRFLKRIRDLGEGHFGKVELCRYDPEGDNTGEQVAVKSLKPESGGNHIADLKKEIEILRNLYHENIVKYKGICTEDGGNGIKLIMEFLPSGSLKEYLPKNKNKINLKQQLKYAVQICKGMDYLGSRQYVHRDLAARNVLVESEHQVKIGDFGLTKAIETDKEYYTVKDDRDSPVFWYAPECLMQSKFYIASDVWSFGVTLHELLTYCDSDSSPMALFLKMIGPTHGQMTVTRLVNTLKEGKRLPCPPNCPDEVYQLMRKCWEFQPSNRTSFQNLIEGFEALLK
T1 sequence (O60674 828-1132): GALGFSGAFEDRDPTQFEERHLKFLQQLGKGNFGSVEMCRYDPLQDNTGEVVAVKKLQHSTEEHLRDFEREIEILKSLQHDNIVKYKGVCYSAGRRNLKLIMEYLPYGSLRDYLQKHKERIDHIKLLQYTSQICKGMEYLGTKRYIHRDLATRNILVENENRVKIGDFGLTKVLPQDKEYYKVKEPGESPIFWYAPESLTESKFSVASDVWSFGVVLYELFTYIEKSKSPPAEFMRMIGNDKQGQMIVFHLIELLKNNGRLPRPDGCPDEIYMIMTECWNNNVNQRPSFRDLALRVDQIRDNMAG
T2 sequence (P52333 781-1124): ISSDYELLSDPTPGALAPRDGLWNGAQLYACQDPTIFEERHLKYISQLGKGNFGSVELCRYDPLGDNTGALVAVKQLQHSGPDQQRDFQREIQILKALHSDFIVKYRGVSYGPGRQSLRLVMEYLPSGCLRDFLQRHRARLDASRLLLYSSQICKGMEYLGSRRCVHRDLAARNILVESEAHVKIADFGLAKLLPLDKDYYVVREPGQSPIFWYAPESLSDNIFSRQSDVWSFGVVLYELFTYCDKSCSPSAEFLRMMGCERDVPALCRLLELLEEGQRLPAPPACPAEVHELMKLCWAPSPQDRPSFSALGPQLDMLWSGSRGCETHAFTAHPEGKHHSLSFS
TYK2, sequence (P29597 whole entry): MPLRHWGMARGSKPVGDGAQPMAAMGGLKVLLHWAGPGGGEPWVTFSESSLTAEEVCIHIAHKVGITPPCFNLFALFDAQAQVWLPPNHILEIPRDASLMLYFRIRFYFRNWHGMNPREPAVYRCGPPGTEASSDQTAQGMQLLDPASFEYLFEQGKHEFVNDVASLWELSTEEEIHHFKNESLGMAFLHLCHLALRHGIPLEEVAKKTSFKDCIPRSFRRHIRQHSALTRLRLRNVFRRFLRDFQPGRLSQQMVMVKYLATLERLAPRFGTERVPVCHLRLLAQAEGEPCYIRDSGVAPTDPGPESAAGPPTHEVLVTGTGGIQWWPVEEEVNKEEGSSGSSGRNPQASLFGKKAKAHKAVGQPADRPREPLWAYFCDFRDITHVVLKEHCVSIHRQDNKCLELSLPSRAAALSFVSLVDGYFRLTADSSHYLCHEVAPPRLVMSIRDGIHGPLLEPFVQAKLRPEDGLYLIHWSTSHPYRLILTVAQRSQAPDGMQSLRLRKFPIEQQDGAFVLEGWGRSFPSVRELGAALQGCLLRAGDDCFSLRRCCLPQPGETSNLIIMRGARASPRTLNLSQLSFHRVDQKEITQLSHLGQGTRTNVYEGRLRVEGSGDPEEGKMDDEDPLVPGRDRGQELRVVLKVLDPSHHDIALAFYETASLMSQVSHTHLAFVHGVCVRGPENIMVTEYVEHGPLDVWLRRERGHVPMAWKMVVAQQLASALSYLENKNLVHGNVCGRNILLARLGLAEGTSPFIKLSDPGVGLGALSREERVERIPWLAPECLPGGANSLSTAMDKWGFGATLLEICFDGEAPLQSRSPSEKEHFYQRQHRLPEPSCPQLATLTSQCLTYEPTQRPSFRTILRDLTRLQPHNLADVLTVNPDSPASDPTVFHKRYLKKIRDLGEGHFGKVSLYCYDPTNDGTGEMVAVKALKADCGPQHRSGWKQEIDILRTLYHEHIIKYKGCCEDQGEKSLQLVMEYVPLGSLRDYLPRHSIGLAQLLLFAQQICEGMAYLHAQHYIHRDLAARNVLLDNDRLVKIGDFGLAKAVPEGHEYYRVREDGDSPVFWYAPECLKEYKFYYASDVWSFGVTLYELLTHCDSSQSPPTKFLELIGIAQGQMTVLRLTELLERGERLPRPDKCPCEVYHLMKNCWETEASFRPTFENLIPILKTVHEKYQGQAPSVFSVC

For `Cc1cc(C(=O)N2CCN(C(=O)COc3ccc4cc3CCc3cncc(c3)Nc3ncc(Cl)c(n3)N4)CC2)no1` [Example D251, 6-Chloro-12-(2-{4-[(5-methylisoxazol-3-yl)carbonyl]piperazin-1-yl}-2-oxoethoxy)-2,4,8,18,22-pentaazatetracyclo[14.3.1.1(3,7).1(9,13)]docosa-1(20),3(22),4,6,9(21),10,12,16,18-nonaene bis(trifluoroacetate)], the pIC50 in experiment [1] (Table D1) was 7.77; in experiment [2] (Table D1), below 6.40; in experiment [3] (Table D1) it was 7.74; on TYK2 (Table D1), below 6.40.
For the molecule `Cc1noc(C)c1NC(=O)N1CCC(CCOc2ccc3cc2CCc2cncc(c2)Nc2ncc(Cl)c(n2)N3)CC1` [Example D171, 4-(2-{[6-Chloro-2,4,8,18,22-pentaazatetracyclo[14.3.1.1(3,7).1(9,13)]docosa-1(20),3(22),4,6,9(21),10,12,16,18-nonaen-12-yl]oxy}ethyl)-N-(3,5-dimethylisoxazol-4-yl)piperidine-1-carboxamide bis(trifluoroacetate)], the pIC50 was 6.61 in experiment [1] (Table D1), below 6.40 in experiment [2] (Table D1), 6.93 in experiment [3] (Table D1) and below 6.40 on TYK2 (Table D1).
Turning to `CC(=O)N1CCC[C@@H](CC(=O)Nc2ccc3cc2CCc2cncc(c2)Nc2ncc(Cl)c(n2)N3)C1` [Example D204, 2-[(3S)-1-Acetylpiperidin-3-yl]-N-[6-chloro-2,4,8,18,22-pentaazatetracyclo[14.3.1.1(3,7).1(9,13)]docosa-1(20),3(22),4,6,9(21),10,12,16,18-nonaen-12-yl]acetamide bis(trifluoroacetate)], the negative-log IC50 (pIC50) in experiment [1] (Table D1) is 7.92; in experiment [2] (Table D1), 7.00; in experiment [3] (Table D1), 8.14; at TYK2 (Table D1), 7.92.
With `O=C(COc1ccc2cc1CCc1cncc(c1)Nc1ncc(Cl)c(n1)N2)N1CCN(c2cccc(C(F)(F)F)n2)CC1` [Example D248, 6-Chloro-12-(2-oxo-2-{4-[6-(trifluoromethyl)pyridin-2-yl]piperazin-1-yl}ethoxy)-2,4,8,18,22-pentaazatetracyclo[14.3.1.1(3,7).1(9,13)]docosa-1(20),3(22),4,6,9(21),10,12,16,18-nonaene tris(trifluoroacetate)], the pIC50 is below 6.40 in experiment [1] (Table D1), below 6.40 in experiment [2] (Table D1), 7.23 in experiment [3] (Table D1) and below 6.40 against TYK2 (Table D1).
As to `Cc1nc(C)c(CC(=O)Nc2ccc3cc2CCc2cccc(c2)Nc2ncc(Cl)c(n2)N3)s1` [Example C43, N-[6-Chloro-2,4,8,22-tetraazatetracyclo[14.3.1.1(3,7).1(9,13)]docosa-1(20),3(22),4,6,9(21),10,12,16,18-nonaen-12-yl]-2-(2,4-dimethyl-1,3-thiazol-5-yl)acetamide trifluoroacetate], the negative-log IC50 (pIC50) is 7.51 in experiment [1], 5.94 in experiment [2], 7.66 in experiment [3] and 7.06 on TYK2.
With `NC(=O)N1CCN(c2ccc3cc2CCc2cccc(c2)Nc2ncc(Cl)c(n2)N3)CC1` [Example D87, 4-[6-Chloro-2,4,8,22-tetraazatetracyclo[14.3.1.1(3,7).1(9,13)]docosa-1(20),3(22),4,6,9(21),10,12,16,18-nonaen-12-yl]piperazine-1-carboxamide bis(trifluoroacetate)], the negative logarithm of the IC50 (pIC50) was 8.48 in experiment [1] (Table D1), 7.47 in experiment [2] (Table D1), 7.74 in experiment [3] (Table D1) and 7.52 against TYK2 (Table D1).
Take `Cn1cc(CC(=O)Nc2ccc3cc2CCc2cccc(c2)Nc2ncc(Cl)c(n2)N3)c2ccccc21` [Example C37, N-[6-Chloro-2,4,8,22-tetraazatetracyclo[14.3.1.1(3,7).1(9,13)]docosa-1(20),3(22),4,6,9(21),10,12,16,18-nonaen-12-yl]-2-(1-methyl-1H-indol-3-yl)acetamide trifluoroacetate]: the pIC50 in experiment [1] is 6.56; in experiment [2], 5.58; in experiment [3], 6.30; against TYK2, 6.24.
Consider `O=C(COc1ccc2cc1CCc1cncc(c1)Nc1ncc(Cl)c(n1)N2)N1CCN(c2ncccn2)CC1` [Example D233, 6-Chloro-12-[2-oxo-2-(4-pyrimidin-2-ylpiperazin-1-yl)ethoxy]-2,4,8,18,22-pentaazatetracyclo[14.3.1.1(3,7).1(9,13)]docosa-1(20),3(22),4,6,9(21),10,12,16,18-nonaene tris(trifluoroacetate)], for which the pIC50 in experiment [1] (Table D1) is below 6.40; in experiment [2] (Table D1) it was below 6.40; in experiment [3] (Table D1), 7.00; against TYK2 (Table D1) it was below 6.40.
Consider `O=C(C[C@@H]1CCCN(C(=O)c2ccccc2)C1)Nc1ccc2cc1CCc1cccc(c1)Nc1ncc(Cl)c(n1)N2` [Example D202, 2-[(3S)-1-Benzoylpiperidin-3-yl]-N-[6-chloro-2,4,8,22-tetraazatetracyclo[14.3.1.1(3,7).1(9,13)]docosa-1(20),3(22),4,6,9(21),10,12,16,18-nonaen-12-yl]acetamide trifluoroacetate], for which the negative-log IC50 (pIC50) was 7.92 in experiment [1] (Table D1), 7.19 in experiment [2] (Table D1), 7.66 in experiment [3] (Table D1) and 7.52 against TYK2 (Table D1).
With `O=C(c1cccs1)N1Cc2cccc(c2)Nc2ncc(Cl)c(n2)Nc2cccc1c2` [Example C25, 6-Chloro-14-(2-thienylcarbonyl)-2,4,8,14,22-pentaazatetracyclo[14.3.1.1(3,7).1(9,13)]docosa-1(20),3(22),4,6,9(21),10,12,16,18-nonaene], the negative-log IC50 (pIC50) is 6.76 in experiment [1], below 5.00 in experiment [2], 7.04 in experiment [3] and 6.10 at TYK2.
For the molecule `NC(=O)N1CCN(C(=O)COc2ccc3cc2CCc2cncc(c2)Nc2ncc(Cl)c(n2)N3)CC1` [Example D270, 4-({[6-Chloro-2,4,8,18,22-pentaazatetracyclo[14.3.1.1(3,7).1(9,13)]docosa-1(20),3(22),4,6,9(21),10,12,16,18-nonaen-12-yl]oxy}acetyl)piperazine-1-carboxamide bis(trifluoroacetate)], the pIC50 in experiment [1] (Table D1) was 7.10; in experiment [2] (Table D1), below 6.40; in experiment [3] (Table D1), 7.64; at TYK2 (Table D1), 6.58.
Taken in the same sequence, the figures for `O=C(C[C@H]1CCCN(C(=O)Nc2ccccc2)C1)Nc1ccc2cc1CCc1cccc(c1)Nc1ncc(Cl)c(n1)N2` [Example D197, (3R)-3-(2-{[6-Chloro-2,4,8,22-tetraazatetracyclo[14.3.1.1(3,7).1(9,13)]docosa-1(20),3(22),4,6,9(21),10,12,16,18-nonaen-12-yl]amino}-2-oxoethyl)-N-phenylpiperidine-1-carboxamide trifluoroacetate] were 8.05, 7.36, 7.80 and 7.47.
As for `O=C(C[C@@H]1CCN(c2nc3cccnc3o2)C1)Nc1ccc2cc1CCc1cncc(c1)Nc1ncc(Cl)c(n1)N2` [Example D140, N-[6-Chloro-2,4,8,18,22-pentaazatetracyclo[14.3.1.1(3,7).1(9,13)]docosa-1(20),3(22),4,6,9(21),10,12,16,18-nonaen-12-yl]-2-[(3S)-1-[1,3]oxazolo[5,4-b]pyridin-2-ylpyrrolidin-3-yl]acetamide tris(trifluoroacetate)], the negative-log IC50 (pIC50) in experiment [1] (Table D1) was 7.08; in experiment [2] (Table D1), below 6.00; in experiment [3] (Table D1), 8.07; at TYK2 (Table D1), 6.65.
